Source: patent US8865750B2, “Small molecule inhibitors of RGS proteins” (The Regents of The University of Michigan, priority 2011, dated 2014)
Like-named read-outs stand apart in the source and are kept apart here.

What was measured:
HEK293 cells = assay: Calcium mobilization induced by compound alone; type: cell-based; details: for Emax at 10 µM: Homo sapiens, HEK293, read-out: Calcium transient (% 50014);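 as to Calcium transient (% 50014): percent of response to 10 µM reference CCG-50014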
Procedure: Calcium Mobilization Experiments:
A stable cell line was developed based upon the HEK-293 Flp-In TREx cell line (Invitrogen, Carlsbad, Calif.) that stably express the muscarinic M3 receptor and have human RGS4 expression under doxycycline control. Cells were maintained in DMEM supplemented with 10% fetal bovine serum and Penicillin (100 units/ml)-Streptomycin (100 μg/ml) under 5% CO2 at 37° C. For experiments, cells were split into 96-well black, clear bottom, poly-D-lysine coated microtiter plates (Nunc, Cat. #152037) at a density of 20,000 cells/well in DMEM containing 10% fetal bovine serum and Penicillin (100 units/ml), Streptomycin (100 μg/ml). RGS4 expression was induced by supplementing the medium with 1 μg/mL doxycycline for 24-48 hours before experimentation. Cells were loaded with Fluo-4 No Wash dye in buffer for 30 minutes at 37° C. Compounds and/or carbachol were added to the wells and the fluorescence intensity was measured using a FlexStation (Molecular Devices, Sunnyvale, Calif.) plate reader. Data analysis was performed by calculating the area under the curve or maximal fluorescence intensity from a 120 second kinetic measurement.

RGS4 = assay: FCPIA: Gαo binding to RGS4; details: for RGS4 Hill Slope: Table 3; for IC50: read-out: RGS4 IC50
Source text: (§1) FCPIA Dose Response and Reversibility Experiments:

RGS8 = RGS8 (Homo sapiens (Human), UniProt P57771); assay: FCPIA: Gαo binding to RGS8; details: for RGS8 Hill Slope: Table 3; for IC50: read-out: RGS8 IC50
Source text: as §1

[1] = Table 3, duplex FCPIA, average of two experiments

RGS8, sequence (P57771 other isoform, or with tags, fused parts or gaps): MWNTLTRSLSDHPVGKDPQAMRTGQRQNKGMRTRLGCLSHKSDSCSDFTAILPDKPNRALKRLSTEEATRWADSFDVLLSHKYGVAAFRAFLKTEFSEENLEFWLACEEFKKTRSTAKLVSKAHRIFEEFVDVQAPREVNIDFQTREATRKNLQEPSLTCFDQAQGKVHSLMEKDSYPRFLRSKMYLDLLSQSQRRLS

O=c1sn(-c2cccc(Cl)c2)c(=O)n1Cc1ccc(F)cc1 [CCG-203776, 2-(3-chlorophenyl)-4-(4-fluorobenzyl)-1,2,4-thiadiazolidine-3,5-dione]
Emax at 10 µM (HEK293 cells): 223% | RGS4 Hill Slope (RGS4): −1.08 | IC50 (RGS4; [1]): 0.052 µM | RGS8 Hill Slope (RGS8): −1.07 | IC50 (RGS8; [1]): 12.8 µM

CC(C)Cn1c(=O)sn(C(C)(C)C)c1=O [CCG-203763, 2-t-butyl-4-isobutyl-1,2,4-thiadiazolidine-3,5-dione]
Emax at 10 µM (HEK293 cells): 73.5% | RGS4 Hill Slope (RGS4): −0.85 | IC50 (RGS4; [1]): 0.029 µM | RGS8 Hill Slope (RGS8): −0.52 | IC50 (RGS8; [1]): 194 µM

COc1ccc(Cn2c(=O)sn(-c3ccccc3)c2=O)cc1 [S24, 2-phenyl-4-(4-methoxybenzyl)-1,2,4-thiadiazolidine-3,5-dione]
Emax at 10 µM (HEK293 cells): 18.6% | RGS4 Hill Slope (RGS4): −1.78 | RGS8 Hill Slope (RGS8): −0.77 | IC50 (RGS8; [1]): 7.2 µM | IC50 (RGS8; Table 6, FCPIA): 7.2 µM

O=c1sn(-c2cccc(C(F)(F)F)c2)c(=O)n1Cc1ccc(F)cc1 [CCG-203775, 2-(3-trifluoromethylphenyl)-4-(4-fluorobenzyl)-1,2,4-thiadiazolidine-3,5-dione]
Emax at 10 µM (HEK293 cells): 170% | RGS4 Hill Slope (RGS4): −0.88 | IC50 (RGS4; [1]): 0.079 µM | RGS8 Hill Slope (RGS8): −1.14 | IC50 (RGS8; [1]): 16.2 µM

O=c1sn(-c2cccc(C(F)(F)F)c2)c(=O)n1Cc1ccccc1 [CCG-203772]
Emax at 10 µM (HEK293 cells): 165% | RGS4 Hill Slope (RGS4): −1.43 | IC50 (RGS4; [1]): 0.057 µM | RGS8 Hill Slope (RGS8): −1.15 | IC50 (RGS8; [1]): 16.4 µM

CC(C)(C)c1ccc(Cn2c(=O)sn(-c3ccc(C(C)(C)C)cc3)c2=O)cc1 [S36, 2-(4-t-butylphenyl)-4-(4-t-butylbenzyl)-1,2,4-thiadiazolidine-3,5-dione]
Emax at 10 µM (HEK293 cells): 14.8% | RGS4 Hill Slope (RGS4): −1.70 | IC50 (RGS8; [1]): > 100 µM | IC50 (RGS8; Table 6, FCPIA): > 100 µM

O=c1sn(-c2ccccc2)c(=O)n1Cc1ccccc1 [CCG-203722, 2-phenyl-4-benzyl-1,2,4-thiadiazoline-3,5-dione]
Emax at 10 µM (HEK293 cells): 3.8% | RGS4 Hill Slope (RGS4): −1.89 | IC50 (RGS4; [1]): 0.024 µM | RGS8 Hill Slope (RGS8): −0.80 | IC50 (RGS8; Table 6, FCPIA): 5.6 µM

Cc1ccc(Cn2sc(=O)n(Cc3ccccc3)c2=O)cc1 [CCG-203734, 2-(4-methylbenzyl)-4-benzyl-1,2,4-thiadiazolidine-3,5-dione]
Emax at 10 µM (HEK293 cells): 591% | RGS4 Hill Slope (RGS4): −0.84 | IC50 (RGS4; Table 6, FCPIA): 0.0072 µM | RGS8 Hill Slope (RGS8): −0.66 | IC50 (RGS8; [1]): 20.4 µM

CCCCn1sc(=O)n(C)c1=O [CCG-203757, 2-butyl-4-methyl-1,2,4-thiadiazolidine-3,5-dione]
Emax at 10 µM (HEK293 cells): 138% | RGS4 Hill Slope (RGS4): −1.01 | IC50 (RGS4; Table 6, FCPIA): 0.0235 µM | RGS8 Hill Slope (RGS8): −1.10 | IC50 (RGS8; [1]): 28.4 µM

Cc1ccc(Cn2sc(=O)n(Cc3ccc(Cl)cc3)c2=O)cc1 [S8, 2-(4-methylbenzyl)-4-(4-chlorobenzyl)-1,2,4-thiadiazolidine-3,5-dione]
Emax at 10 µM (HEK293 cells): 11.4% | RGS4 Hill Slope (RGS4): −1.23 | RGS8 Hill Slope (RGS8): −0.60 | IC50 (RGS8; [1]): 337 µM | IC50 (RGS8; Table 6, FCPIA): 337 µM

O=c1sn(-c2ccc(Cl)c(Cl)c2)c(=O)n1Cc1ccccc1 [CCG-203725]
Emax at 10 µM (HEK293 cells): 64.2% | RGS4 Hill Slope (RGS4): −2.06 | IC50 (RGS4; [1]): 0.089 µM | RGS8 Hill Slope (RGS8): −1.62 | IC50 (RGS8; Table 6, FCPIA): 13.2 µM

COc1ccc(Cn2c(=O)sn(-c3ccc(OC)cc3)c2=O)cc1 [S26, 2-(4-methoxyphenyl)-4-(4-methoxybenzyl)-1,2,4-thiadiazolidine-3,5-dione]
Emax at 10 µM (HEK293 cells): 54.9% | RGS4 Hill Slope (RGS4): −1.27 | RGS8 Hill Slope (RGS8): −0.81 | IC50 (RGS8; [1]): 17.6 µM | IC50 (RGS8; Table 6, FCPIA): 17.6 µM

Cc1ccc(-n2sc(=O)n(Cc3cccc(Cl)c3)c2=O)cc1 [CCG-203777, 2-p-tolyl-4-(3-chlorobenzyl)-1,2,4-thiadiazolidine-3,5-dione]
Emax at 10 µM (HEK293 cells): 179% | RGS4 Hill Slope (RGS4): −0.96 | IC50 (RGS4; [1]): 0.017 µM | RGS8 Hill Slope (RGS8): −1.00 | IC50 (RGS8; [1]): 17.5 µM

CCCCn1sc(=O)n(Cc2ccc(F)cc2)c1=O [CCG-203765, 2-butyl-4-(4-fluorobenzyl)-1,2,4-thiadiazolidine-3,5-dione]
Emax at 10 µM (HEK293 cells): 184% | RGS4 Hill Slope (RGS4): −0.81 | IC50 (RGS4; [1]): 0.016 µM | RGS8 Hill Slope (RGS8): −0.59 | IC50 (RGS8; [1]): 31.6 µM

O=c1sn(-c2ccc(Cl)cc2)c(=O)n1Cc1ccc(Cl)cc1 [S5, 2-(4-chlorophenyl)-4-(4-chlorobenzyl)-1,2,4-thiadiazolidine-3,5-dione]
Emax at 10 µM (HEK293 cells): 141% | RGS4 Hill Slope (RGS4): −1.48 | RGS8 Hill Slope (RGS8): −1.36 | IC50 (RGS8; [1]): 12.7 µM | IC50 (RGS8; Table 6, FCPIA): 12.7 µM

CCCCn1c(=O)sn(C(C)(C)C)c1=O [CCG-203768, 2-t-butyl-4-butyl-1,2,4-thiadiazolidine-3,5-dione]
Emax at 10 µM (HEK293 cells): 91.7% | RGS4 Hill Slope (RGS4): −3.18 | IC50 (RGS4; [1]): 0.054 µM | RGS8 Hill Slope (RGS8): −0.70 | IC50 (RGS8; [1]): 119 µM

Cc1ccc(-n2sc(=O)n(Cc3ccc(C(C)(C)C)cc3)c2=O)cc1 [S34, 2-p-tolyl-4-(4-t-butylbenzyl)-1,2,4-thiadiazolidine-3,5-dione]
Emax at 10 µM (HEK293 cells): 18.9% | RGS4 Hill Slope (RGS4): −1.36 | IC50 (RGS8; [1]): > 100 µM | IC50 (RGS8; Table 6, FCPIA): > 100 µM

Cc1cccc(Cn2c(=O)sn(-c3cccc(C)c3)c2=O)c1 [S21, 2-m-tolyl-4-(3-methylbenzyl)-1,2,4-thiadiazolidine-3,5-dione]
Emax at 10 µM (HEK293 cells): 63.3% | RGS4 Hill Slope (RGS4): −1.79 | RGS8 Hill Slope (RGS8): −0.82 | IC50 (RGS8; [1]): 10.4 µM | IC50 (RGS8; Table 6, FCPIA): 10.4 µM

Cc1ccc(-n2sc(=O)n(CC(C)C)c2=O)cc1 [CCG-203761, 2-p-tolyl-4-isobutyl-1,2,4-thiadiazolidine-3,5-dione]
Emax at 10 µM (HEK293 cells): 98.9% | RGS4 Hill Slope (RGS4): −1.47 | IC50 (RGS4; Table 6, FCPIA): 0.014 µM | RGS8 Hill Slope (RGS8): −0.92 | IC50 (RGS8; Table 6, FCPIA): 7.7 µM

COc1ccc(-n2sc(=O)n(Cc3ccc(F)cc3)c2=O)cc1 [CCG-203735, 2-(4-methoxyphenyl)-4-(4-fluorobenzyl)-1,2,4-thiadiazolidine-3,5-dione]
Emax at 10 µM (HEK293 cells): 6.2% | RGS4 Hill Slope (RGS4): −1.33 | IC50 (RGS4; [1]): 0.011 µM | RGS8 Hill Slope (RGS8): −1.27 | IC50 (RGS8; Table 6, FCPIA): 11.4 µM

COc1ccc(Cn2c(=O)sn(Cc3ccc(C)cc3)c2=O)cc1 [S28, 2-(4-methylbenzyl)-4-(4-methoxybenzyl)-1,2,4-thiadiazolidine-3,5-dione]
Emax at 10 µM (HEK293 cells): 169% | RGS4 Hill Slope (RGS4): −2.42 | RGS8 Hill Slope (RGS8): −0.64 | IC50 (RGS8; [1]): 92.9 µM | IC50 (RGS8; Table 6, FCPIA): 92.9 µM

O=c1sn(-c2ccc(Cl)c(Cl)c2)c(=O)n1Cc1ccc(Cl)c(Cl)c1 [S32, 2-(3,4-dichlorophenyl)-4-(3,4-dichlorobenzyl)-1,2,4-thiadiazolidine-3,5-dione]
Emax at 10 µM (HEK293 cells): 49.6% | RGS4 Hill Slope (RGS4): −0.87 | RGS8 Hill Slope (RGS8): −0.85 | IC50 (RGS8; [1]): 125 µM | IC50 (RGS8; Table 6, FCPIA): 125 µM

Cc1cccc(-n2sc(=O)n(Cc3cccc(Cl)c3)c2=O)c1 [S16, 2-m-tolyl-4-(3-chlorobenzyl)-1,2,4-thiadiazolidine-3,5-dione]
Emax at 10 µM (HEK293 cells): 142% | RGS4 Hill Slope (RGS4): −1.52 | RGS8 Hill Slope (RGS8): −0.95 | IC50 (RGS8; [1]): 10.1 µM | IC50 (RGS8; Table 6, FCPIA): 10.1 µM

Cc1ccc(Cn2c(=O)sn(-c3ccc(C)cc3)c2=O)cc1 [CCG-203736, 2-p-tolyl-4-(4-methylbenzyl)-1,2,4-thiadiazolidine-3,5-dione]
Emax at 10 µM (HEK293 cells): 4.9% | RGS4 Hill Slope (RGS4): −1.35 | IC50 (RGS4; Table 6, FCPIA): 0.0086 µM | RGS8 Hill Slope (RGS8): −1.45 | IC50 (RGS8; [1]): 11.6 µM

Cc1ccc(Cn2sc(=O)n(Cc3ccc(F)cc3)c2=O)cc1 [CCG-203742, 2-(4-methylbenzyl)-4-(4-fluorobenzyl)-1,2,4-thiadiazolidine-3,5-dione]
Emax at 10 µM (HEK293 cells): 108% | RGS4 Hill Slope (RGS4): −1.19 | IC50 (RGS4; [1]): 0.013 µM | RGS8 Hill Slope (RGS8): −0.22 | IC50 (RGS8; [1]): 39.8 µM

Cn1c(=O)sn(C(C)(C)C)c1=O [CCG-203760, 2-t-butyl-4-methyl-1,2,4-thiadiazolidine-3,5-dione]
induction of calcium transient by compound alone (HEK293 cells; 10 μM, HEK293 cells): no ability to induce calcium mobilization | Emax at 10 µM (HEK293 cells): 47.2% | RGS4 Hill Slope (RGS4): −0.99 | IC50 (RGS4; [1]): 0.028 µM | RGS8 Hill Slope (RGS8): −0.89 | IC50 (RGS8; Table 6, FCPIA): 56 µM

O=c1sn(-c2ccccc2)c(=O)n1Cc1ccc(F)cc1 [CCG-203726, 2-phenyl-4-(4-fluorobenzyl)-1,2,4-thiadiazolidine-3,5-dione]
Emax at 10 µM (HEK293 cells): 20.9% | RGS4 Hill Slope (RGS4): −1.42 | IC50 (RGS4; [1]): 0.016 µM | RGS8 Hill Slope (RGS8): −0.82 | IC50 (RGS8; Table 6, FCPIA): 6.2 µM

O=c1sn(-c2ccccc2)c(=O)n1Cc1cccc(Cl)c1 [S14, 2-phenyl-4-(3-chlorobenzyl)-1,2,4-thiadiazolidine-3,5-dione]
Emax at 10 µM (HEK293 cells): 57.7% | RGS4 Hill Slope (RGS4): −1.41 | RGS8 Hill Slope (RGS8): −1.47 | IC50 (RGS8; [1]): 9.4 µM | IC50 (RGS8; Table 6, FCPIA): 9.4 µM

CCCCn1c(=O)sn(-c2ccc(C)cc2)c1=O [CCG-203767, 2-p-tolyl-4-butyl-1,2,4-thiadiazolidine-3,5-dione]
Emax at 10 µM (HEK293 cells): 123% | RGS4 Hill Slope (RGS4): −1.46 | IC50 (RGS4; [1]): 0.02 µM | RGS8 Hill Slope (RGS8): −0.96 | IC50 (RGS8; Table 6, FCPIA): 9.5 µM
